Columns and labels:
[1] = system: U2OS cells; experiment: Cell-based viability/proliferation screen, DAPI staining and automated microscopy; design: species or system human; conditions: for IC50: Homo sapiens, 10 pM to 10 μM, DAPI staining, read-out: IC50 from Screening Cell Based
Procedure: The biological effectiveness of the 39 compounds selected by re-screening was determined by measuring their half maximal inhibitory concentration (IC50) biochemically and in a cell-based system using the 384-well platform (Supplementary Table S2). […] We conducted the viability assay in duplicate on three separate occasions using a concentration range of 10 pM to 10 μM for each compound. Cell proliferation was determined using 4,6-diamidino-2-phenylindole staining and microscopy.
In addition, a second dark quencher ZEN (N,N-diethyl-4-(4-nitronaphthalen-1-ylazo)-phenylamine, absorption max.=532 nm) is placed between 9th and 10th base (Figure 2a). Initial screen, it was performed with yDna2.[22] Then, the top candidate compounds were tested on hDNA2. Identical reaction conditions were used for assaying the nuclease activity of yDna2 and hDNA2. […] The reaction buffer was 20 mM HEPES/NaOH, pH 7.5, 60 mM KCl, 1 mM DTT, 100 μg/ml bovine serum albumin and 0.05% Triton X-100. The nuclease assay was initiated by adding MgCl2 (3 mM final concentration). T5 nuclease was assayed in the buffer (50 mM potassium acetate, pH 7.9, 20 mM Tris-acetate, 10 mM magnesium acetate and 1 mM DTT) provided by the vendor (NEB, Ipswich, MA, USA). The concentration of the fluorogenic substrate was 0.1 μM. The optimal amount of yDna2, hDNA2 and T5 nuclease was determined by utilizing the Kaleidagraph software (Reading, PA, USA) to fit the data according to Michaelis Menton Kinetics (V=V0+Vmax*x/(Km+x)). […] All the compounds were dissolved in DMSO and DMSO alone was used as control; the final concentration of DMSO was at 3.33% for protein-based assay and 0.1% for cell-based assay. The Z’ value was calculated as previously described.[50] Cell proliferation was determined using 4,6-diamidino-2-phenylindole staining followed by high-throughput microscopy in a 384-well plate setup. In brief, cells were fixed with formaldehyde, washed and stained with 4,6-diamidino-2-phenylindole and the number of nuclei in each well counted by automated microscopy. The data were analyzed as described.[51]

[2] = molecular target: T1, hDNA2 (Homo sapiens, UniProt P51530); experiment: Fluorescence nuclease assay with hDNA2 (triply labeled ssDNA); assay type: biochemical; conditions: human DNA2 10 nM; substrate 0.1 μM; Figure 3c; read-out: IC50 (human DNA2), dose-response in vitro
T1 construct: made in house
T1 sequence (P51530 1-1060): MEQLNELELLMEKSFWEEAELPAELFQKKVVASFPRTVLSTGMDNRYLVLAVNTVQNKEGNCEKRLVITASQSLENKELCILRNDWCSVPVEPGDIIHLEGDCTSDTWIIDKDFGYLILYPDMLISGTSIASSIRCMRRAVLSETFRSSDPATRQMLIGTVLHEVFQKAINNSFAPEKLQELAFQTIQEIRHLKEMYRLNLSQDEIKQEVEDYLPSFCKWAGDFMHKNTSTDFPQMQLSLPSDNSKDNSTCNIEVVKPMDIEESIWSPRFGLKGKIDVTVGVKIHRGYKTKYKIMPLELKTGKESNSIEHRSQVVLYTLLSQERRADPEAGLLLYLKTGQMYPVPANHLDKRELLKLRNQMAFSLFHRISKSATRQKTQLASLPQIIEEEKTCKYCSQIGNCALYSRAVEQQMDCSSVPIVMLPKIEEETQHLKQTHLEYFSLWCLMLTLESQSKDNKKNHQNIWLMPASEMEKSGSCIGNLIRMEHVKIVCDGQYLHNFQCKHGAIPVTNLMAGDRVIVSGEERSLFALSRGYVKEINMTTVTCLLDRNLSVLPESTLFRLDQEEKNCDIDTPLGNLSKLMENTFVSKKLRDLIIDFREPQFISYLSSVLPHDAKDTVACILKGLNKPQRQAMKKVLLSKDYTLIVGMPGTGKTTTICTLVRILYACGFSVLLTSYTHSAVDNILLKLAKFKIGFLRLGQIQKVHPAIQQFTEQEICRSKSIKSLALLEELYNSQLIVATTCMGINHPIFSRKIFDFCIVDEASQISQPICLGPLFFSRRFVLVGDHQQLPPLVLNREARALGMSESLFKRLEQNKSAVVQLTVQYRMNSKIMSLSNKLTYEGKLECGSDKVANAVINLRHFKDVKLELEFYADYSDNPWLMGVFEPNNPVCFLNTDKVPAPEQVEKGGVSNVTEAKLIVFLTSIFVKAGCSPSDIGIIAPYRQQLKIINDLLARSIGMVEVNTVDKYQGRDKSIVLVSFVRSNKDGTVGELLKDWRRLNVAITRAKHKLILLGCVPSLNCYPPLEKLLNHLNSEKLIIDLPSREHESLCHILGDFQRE
Procedure: Figure 3 Validation of the top two inhibitors identified from the high-throughput screen. […] (b, c) Dose-response curves for indicated compounds, cell based (U2OS cell line) (b) and in vitro (c). The IC50 value and the protein concentration used are indicated. Triple labeled substrate (0.1 μM) as in Figure 2a was used. The concentration range of inhibitors was 0.003–666.67 μM. […] The asterisks denote the radiolabel. Plotted are the average data from three independent experiments and the error bars represent 1 s.d. […]
In addition, a second dark quencher ZEN (N,N-diethyl-4-(4-nitronaphthalen-1-ylazo)-phenylamine, absorption max.=532 nm) is placed between 9th and 10th base (Figure 2a). […] The optimal amount of yDna2, hDNA2 and T5 nuclease was determined by utilizing the Kaleidagraph software (Reading, PA, USA) to fit the data according to Michaelis Menton Kinetics (V=V0+Vmax*x/(Km+x)). […] The Z’ value was calculated as previously described.[50] Cell proliferation was determined using 4,6-diamidino-2-phenylindole staining followed by high-throughput microscopy in a 384-well plate setup. In brief, cells were fixed with formaldehyde, washed and stained with 4,6-diamidino-2-phenylindole and the number of nuclei in each well counted by automated microscopy. The data were analyzed as described.[51]

| SMILES | IC50 [1] | Effect of longer exposure on cells ([1]; exposure >48 h) | IC50 [2] |
| --- | --- | --- | --- |
| NC1=C(Br)C(=O)c2ncccc2C1=O [NSC-105808, 6-amino-7-bromoquinoline-5,8-dione] | 2700 nM | causes cell death | 1490 nM |
| O=C1C(=O)c2cc([N+](=O)[O-])ccc2-c2ccccc21 [NSC-5195242, 2-nitrophenanthrene-9,10-dione] | 1000 nM |  | 3100 nM |

Source: PMC5520492, “Inhibition of DNA2 nuclease as a therapeutic strategy targeting replication stress in cancer cells” (Oncogenesis, 2017)
